pIC50, pKi: −log10 of the molar value. Like-named read-outs stand apart in the source and are kept apart here.
Key:
[1] = biological target: T1, green coffee bean α-galactosidase (Coffea arabica, UniProt Q42656); experiment: Inhibition of green coffee bean α-galactosidase, Ki by kinetic studies; type: biochemical; details: 37 °C, pH 6.5, substrate PNP-Gal; read-out: Ki α-gal GCB
T1 construct: made in house
Protocol: Green coffee bean α-galactosidase was purified and assayed as described.
Kinetic studies were performed at 37°C in 50 mM sodium phosphate buffer, pH 6.5 containing 0.1% serum albumin. Reactions were initiated by the addition of enzyme (final concentration = 0.3 µg/mL), bringing the total volume to 200µL. Reaction rates were measured by monitoring the release of p-nitrophenolate (λ = 400 nm, ε = […]) from PNP-Gal by means of a UNICAM 8700 UV-Vis spectrophotometer equipped with a circulating water bath. Inhibition studies were performed by varying […]
concentrations of both PNP-Gal and inhibitor. Ki values were calculated by direct fit of the initial rates to the equation below using Grafit. […]

[2] = biological target: T2, Agrobacterium sp. β-glucosidase/galactosidase (Agrobacterium sp., UniProt P12614); experiment: Inhibition of Agrobacterium sp. β-glucosidase/galactosidase (Abg), Ki by kinetic studies; type: biochemical
T2 construct: made in house
T2 sequence (P12614 1-459): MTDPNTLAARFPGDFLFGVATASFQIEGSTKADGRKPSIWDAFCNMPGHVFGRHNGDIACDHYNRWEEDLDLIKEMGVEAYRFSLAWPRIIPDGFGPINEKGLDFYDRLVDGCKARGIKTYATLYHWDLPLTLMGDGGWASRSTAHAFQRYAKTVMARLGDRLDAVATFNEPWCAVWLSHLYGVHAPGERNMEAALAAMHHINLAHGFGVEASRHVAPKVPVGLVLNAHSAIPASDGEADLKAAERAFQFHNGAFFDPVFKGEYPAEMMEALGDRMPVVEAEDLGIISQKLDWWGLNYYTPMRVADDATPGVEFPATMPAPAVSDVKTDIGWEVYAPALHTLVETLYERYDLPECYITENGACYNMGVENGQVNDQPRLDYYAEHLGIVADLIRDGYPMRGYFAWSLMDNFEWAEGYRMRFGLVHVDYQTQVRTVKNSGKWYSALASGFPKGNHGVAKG
Protocol: glycosidase was purified and assayed as described. Kinetic studies were performed at 37 °C in pH 7.0 sodium phosphate buffer (50 mM) containing 0.1 % bovine serum albumin, using 7.2 x 10-5 mg/mL enzyme. Approximate values of Ki were determined using a fixed concentration of substrate, 4-nitrophenyl β-D- […]
times to 5 times the Ki value ultimately determined. A horizontal line drawn through […]
an inhibitor concentration equal to -Ki. Full Ki determinations where required, were performed using the same range of inhibitor concentrations while also varying substrate (4-nitrophenyl glucoside) concentrations from approximately 0.015 mM to 0.6 mM. Data were analysed by direct fit to the Michaelis Menten equation describing reaction in the presence of inhibitors using the program GraFit. […]

[3] = test system: β-galactosidase mutant feline fibroblast cell line; experiment: Chemical chaperone activity in β-galactosidase mutant feline fibroblast cell line; type: cell-based; details: preliminary; for increase of enzyme activity of β-galactosidase mutant: concentration 100 µM
[4] = biological target: T3, E. coli β-galactosidase (Escherichia coli, UniProt P00722); experiment: Inhibition of E. coli β-galactosidase, Ki by kinetic studies; type: biochemical
T3 construct: purchased Sigma Chemicals
T3 sequence (P00722 2-1024 limits assumed): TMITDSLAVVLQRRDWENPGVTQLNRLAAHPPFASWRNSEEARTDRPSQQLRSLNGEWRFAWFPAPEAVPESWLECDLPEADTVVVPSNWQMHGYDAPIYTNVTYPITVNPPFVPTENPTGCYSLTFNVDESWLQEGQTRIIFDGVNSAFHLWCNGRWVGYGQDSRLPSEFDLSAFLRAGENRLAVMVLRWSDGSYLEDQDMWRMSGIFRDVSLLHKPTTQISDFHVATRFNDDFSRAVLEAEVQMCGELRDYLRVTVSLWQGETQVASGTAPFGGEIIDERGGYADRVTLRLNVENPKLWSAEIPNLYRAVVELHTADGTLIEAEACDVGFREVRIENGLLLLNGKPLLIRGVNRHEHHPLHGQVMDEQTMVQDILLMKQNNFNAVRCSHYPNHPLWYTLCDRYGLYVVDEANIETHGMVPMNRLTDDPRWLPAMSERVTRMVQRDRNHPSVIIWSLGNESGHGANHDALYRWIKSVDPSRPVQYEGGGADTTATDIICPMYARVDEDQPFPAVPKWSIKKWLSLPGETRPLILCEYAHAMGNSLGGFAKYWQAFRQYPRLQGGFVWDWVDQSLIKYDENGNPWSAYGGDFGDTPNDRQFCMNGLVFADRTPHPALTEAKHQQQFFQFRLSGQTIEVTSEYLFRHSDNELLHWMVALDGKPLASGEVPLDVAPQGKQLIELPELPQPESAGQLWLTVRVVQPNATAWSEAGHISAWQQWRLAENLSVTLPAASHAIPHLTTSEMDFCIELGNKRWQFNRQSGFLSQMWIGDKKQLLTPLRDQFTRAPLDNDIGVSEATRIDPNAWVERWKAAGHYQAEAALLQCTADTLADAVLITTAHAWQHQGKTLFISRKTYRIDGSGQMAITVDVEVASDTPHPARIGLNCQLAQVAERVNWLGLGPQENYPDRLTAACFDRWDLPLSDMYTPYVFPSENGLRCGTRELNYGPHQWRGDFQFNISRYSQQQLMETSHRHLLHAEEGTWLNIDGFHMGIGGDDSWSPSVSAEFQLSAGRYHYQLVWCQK
Protocol: E. coli β-galactosidase was purchased from Sigma Chemicals. Kinetic studies were performed at 37°C in 100 mM sodium phosphate buffer, pH 7.0 containing 0.1% serum albumin. Rates of reaction were determined as a function of both varying substrate and inhibitor concentration over the concentration ranges indicated below.
Data obtained were analysed using a nonlinear regression analysis program GraFit, p-nitrogalactopyranoside (Km = 0.03 mM), 0.045 – 0.3 mM). […]

[5] = test system: α-galactosidase A; design: method as in PMID 17894781, PMID 18381081, PMID 19387866, PMID 19287194; details: cultured Fabry patient cell lines, incubation for five days, 49 missense mutant forms; cited from earlier work
[6] = test system: tissue globotriaosylceramide levels; design: method as in PMID 19773742; details: mouse model; cited from earlier work
[7] = biological target: T4, human lysosomal β-galactosidase (Homo sapiens, UniProt P16278); experiment: Inhibition of human lysosomal β-galactosidase; type: biochemical
T4 sequence (P16278 29-677): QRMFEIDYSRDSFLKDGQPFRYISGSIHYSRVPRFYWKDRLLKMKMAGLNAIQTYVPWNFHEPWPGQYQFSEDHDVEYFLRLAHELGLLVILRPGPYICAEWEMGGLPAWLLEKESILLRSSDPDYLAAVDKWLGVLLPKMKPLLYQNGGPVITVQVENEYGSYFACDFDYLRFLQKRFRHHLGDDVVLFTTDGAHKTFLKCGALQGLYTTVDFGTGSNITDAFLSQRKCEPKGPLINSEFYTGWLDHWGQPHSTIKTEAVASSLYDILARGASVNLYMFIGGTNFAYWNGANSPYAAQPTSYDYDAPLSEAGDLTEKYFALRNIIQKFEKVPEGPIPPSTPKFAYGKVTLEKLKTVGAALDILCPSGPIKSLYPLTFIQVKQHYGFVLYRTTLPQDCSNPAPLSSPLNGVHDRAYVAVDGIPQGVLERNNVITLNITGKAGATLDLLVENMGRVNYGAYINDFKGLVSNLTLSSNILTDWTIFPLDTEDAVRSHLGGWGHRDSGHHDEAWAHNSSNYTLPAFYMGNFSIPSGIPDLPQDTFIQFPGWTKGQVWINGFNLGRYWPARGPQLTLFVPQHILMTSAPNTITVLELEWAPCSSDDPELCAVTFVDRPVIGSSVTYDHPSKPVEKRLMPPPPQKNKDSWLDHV

[8] = test system: β-galactosidase; design: method as in PMID 19812739; details: GM1-gangliosidosis model mice, orally administered; cited from earlier work
[9] = 37 °C, pH 7.0, read-out: Ki β-gal E. coli

T1 sequence (Q42656 16-378): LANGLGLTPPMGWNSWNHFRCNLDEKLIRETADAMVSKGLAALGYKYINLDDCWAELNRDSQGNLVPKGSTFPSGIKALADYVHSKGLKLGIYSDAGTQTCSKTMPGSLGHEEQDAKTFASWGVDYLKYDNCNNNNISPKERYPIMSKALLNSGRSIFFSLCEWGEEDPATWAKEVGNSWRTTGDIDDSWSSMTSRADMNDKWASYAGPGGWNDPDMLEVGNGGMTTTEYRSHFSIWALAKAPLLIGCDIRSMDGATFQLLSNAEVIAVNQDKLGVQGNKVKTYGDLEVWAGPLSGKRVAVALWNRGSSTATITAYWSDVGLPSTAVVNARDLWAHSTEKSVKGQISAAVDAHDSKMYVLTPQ

With `O=C(NCCCCCCN1C[C@H](O)[C@@H](O)[C@@H](O)[C@H]1CO)c1cccnc1` [Compound 17] the pKi [1] was 5.66, the pKi [2] was 5.82 and the “increase of enzyme activity of β-galactosidase mutant” value [3] was “up to 5.5 fold”. For the same molecule, the pKi [4, 9] was 6.08.
`CC(C)c1ccc(C(=O)NCCCCCCN2C[C@H](O)[C@@H](O)[C@@H](O)[C@H]2CO)cc1` [Compound 16] showed a pKi [1] of 5.59, a pKi [2] of 4.89 and a pKi [4] of 5.89.
For `OC[C@H]1NC[C@H](O)[C@@H](O)[C@H]1O` [Compound 4, 1-Deoxygalactonojirimycin], the “increase of α-galactosidase A levels” value [5] is given as 1.5 to 28 fold and the tissue globotriaosylceramide levels [6] is given as “reduce tissue globotriaosylceramide levels”.
Work on `CC(C)(C)OC(=O)NCCCCCCN1C[C@H](O)[C@@H](O)[C@@H](O)[C@H]1CO` [Compound 20] yielded a pIC50 [7] of 4.96, a pKi [7] of 5.70 and a pKi [1] of 5.37. For the same molecule, the pKi ([2]; read-out: Ki β-glu/gal Abg, 37 °C, pH 7.0, substrate 4-nitrophenyl β-D-glucopyranoside) was 5.52 and the pKi [4, 9] was 5.62.
In the case of `CCCCCCCCN[C@@H]1C=C(CO)[C@H](O)[C@H](O)[C@H]1O` [N-octyl-4-epi-β-valienamine], the “β-galactosidase activity in brain after oral administration” value [8] is given as “enhancing β-galactosidase activity”.
Work on `O=C(CCCc1ccc2ccc3cccc4ccc1c2c34)NCCCCCCN1C[C@H](O)[C@@H](O)[C@@H](O)C1CO` (stereo partly shown) [Compound 19] yielded a pKi [1] of 5.15, a pKi [2] of 7.22 and a pKi [4] of 6.60.
For `CN(C)c1ccc(C(=O)NCCCCCCN2C[C@H](O)[C@@H](O)[C@@H](O)[C@H]2CO)cc1` [Compound 18], the pKi [1] was 6.31, the pKi [2] was 5.42 and the “increase of relative enzyme activity of β-galactosidase mutant” value ([3]; concentration 2 µM) was 4.8 fold. The pKi [4, 9] was 5.96.
For `O=C(NCCCCCCN1C[C@H](O)[C@@H](O)[C@@H](O)[C@H]1CO)OCc1ccccc1` [Compound 22], the pIC50 [7] was 5.49, the pKi [7] was 6.14 and the pKi [1] was 5.66. The pKi [2] was 5.22, the “increase of enzyme activity of β-galactosidase mutant” value [3] was “up to 5.5 fold” and the pKi [4, 9] was 6.40.

Reference: article PMC2874416 (Beilstein Journal of Organic Chemistry, 2010)
